Laboratory results published in patent US20200148682A1, “AKT ISOZYME-SPECIFIC COVALENT INHIBITORS DERIVED FROM REDOX-SIGNALING LIPIDS” (Cornell University, priority 2017, published 2020).
“Also recorded” adds a separate entry of the source.

Assays:
Type in all cases: cell-based
MDA-MB-468 cells = assay: Cell cycle analysis using flow cytometry
Method: MDA-MB-468 cells in a 6-well plate at 10% confluence were treated with HNE alkyne or the indicated drug at PI60 or PI80 concentration for 72 hours at 37° C. Negative control contained the equivalent volume of DMSO. Cells were grown and analyzed in separate batches of 1-2 replicates per condition that were run 2-3 times each. Each time the data points were normalized to the control set for each batch. At the indicated time post compound treatment, the culture medium was aspirated and the adherent cells were detached from the plate using trypsin, quenched with complete media, centrifuged (700 g), washed once with PBS, centrifuged (700 g), resuspended in PBS, then fixed with 70% ethanol for 24 hours. The cell suspensions were spun down at 1,000 g and washed with 500 μl of PBS twice. Each cell pellet was treated with 500 μL staining solution containing 50 μl of Ribonuclease A (≥70 Kunitz units/mg proteins, R6513, Sigma-Aldrich) and 50 μl of a propidium iodide (1 mg/ml, Sigma-Aldrich) solution in PBS with 1% BSA. The resulting solution was incubated with agitation at room temperature for 30 min in the dark.
The stained cells were assayed on a BD LSR II flow cytometer. FlowJo® was used to deconvolute the signals. Cells were grouped first by forward and side scatter (area), then that group was regrouped using forward (width) versus forward (area) scatter to give single cells. Cells were than analyzed using cellular DNA content to quantitate the percentage of cells in the respective phases (G1, S, G2/M and sub-G0) of the cell cycle.

[1] = system: Akt1, Akt2, Akt3 isoforms; assay: Akt isoform selectivity of covalent inhibition (in-gel fluorescence, transfected HEK293T cells)
Excerpt: Overexpressed Akt proteins were labeled with Cy5-small-molecule-fluorophore-conjugated azide (Cy5-azide) using standard click chemistry. FIG. 16A top gel is an image showing Cy5 channel (used to evaluate the extent of covalent binding on each Akt protein). The lysate from non-transfected HEK 293T cells was also used for comparison. M, molecular weight ladder. […] FIG. 16B top gel is an image showing Cy5 channel. M is a molecular weight ladder. FIG. 16B bottom is an image showing western blots probing Halo and actin, respectively. […] Error bars designate s.d. […] Normalized fluorescent signal (NFS) was calculated from the following equation: NFS=[(Cy5(X μM drug)−Cy5(No transfection))/Halo(X μM drug)]÷[(Cy5(no drug)−Cy5(No transfection))/Halo(no drug)]. The relative fluorescent signal (RFS) is calculated from the following equation: RFS=(Cy5(X μM drug)/Halo(X μM drug)) (Cy5(no drug)/Halo(no drug))
Cell transfection with the designated plasmid encoding a given HaloTag-Akt fusion gene was carried out following the general procedure described in Example 12. After 20-24 hours, the transfection media were aspirated and replaced with fresh 2 mL rinse MEM medium supplemented with 3% FBS containing the indicated concentration of inhibitor or the equivalent final volume of DMSO and the plates were incubated for the indicated period of time. […]

Halo-Akt3 = biological target: T1, Halo-Akt3 (Homo sapiens, UniProt Q9Y243); assay: In-gel fluorescence assay (Cy5-azide click) of covalent labeling in transfected HEK293T cells; conditions: 5 μM, 48 hours
T1 construct: expressed in transfected cells; host or cells: HEK293T
T1 sequence (Q9Y243 whole entry): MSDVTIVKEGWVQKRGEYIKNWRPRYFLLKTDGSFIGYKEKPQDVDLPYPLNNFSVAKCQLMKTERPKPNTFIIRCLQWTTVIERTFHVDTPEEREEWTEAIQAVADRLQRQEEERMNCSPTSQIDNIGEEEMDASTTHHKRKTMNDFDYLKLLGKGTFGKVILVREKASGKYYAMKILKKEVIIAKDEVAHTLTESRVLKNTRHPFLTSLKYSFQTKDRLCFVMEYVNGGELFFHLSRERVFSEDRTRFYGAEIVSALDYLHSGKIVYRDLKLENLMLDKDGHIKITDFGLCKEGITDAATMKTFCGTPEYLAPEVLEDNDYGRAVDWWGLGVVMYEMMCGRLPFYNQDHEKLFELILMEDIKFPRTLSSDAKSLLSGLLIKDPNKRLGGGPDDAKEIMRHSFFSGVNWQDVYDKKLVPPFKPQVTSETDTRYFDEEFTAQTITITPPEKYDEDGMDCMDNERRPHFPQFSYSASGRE
Method: HEK293T cells were transfected with Halo-Akt3 for 20 hours, then treated with the stated compound (5 μM, 48 hours). After this time, cells were lysed and the labeling was assayed by click chemistry. […] FIGS. 19A, 19C top gels are images showing in gel fluorescence, Cy5 channel. M is a molecular weight ladder. FIG. 19A, 19C lower panels are images of western blots (probing for Halo and actin, respectively) transferred from the same gel as the top image. […] FIGS. 19E-19F are graphs showing quantitation of in-gel Cy5 signal intensity, divided by the western blot signal for Halo.
Cell transfection with the designated plasmid encoding a given HaloTag-Akt fusion gene was carried out following the general procedure described in Example 12. After 20-24 hours, the transfection media were aspirated and replaced with fresh 2 mL rinse MEM medium supplemented with 3% FBS containing the indicated concentration of inhibitor or the equivalent final volume of DMSO and the plates were incubated for the indicated period of time. Cells were then harvested and lysed following the general procedure described in Examples 11 and 13. A portion of the lysate was made up to 25 μL final volume containing, in final concentrations, 5% t-BuOH, [2 mM TCEP, 1% SDS, 1 mM CuSO4, 0.1 mM Cu(TBTA), 10 μM Cy5 azide made up as a 10× stock in water] and 1.0 mg/mL lysate protein. The samples were incubated at 37° C. for 30 min and subsequently quenched with 8 μL of 4×Laemmeli dye containing 6% f ME. After an additional 5-min incubation at 37° C., samples were resolved on a 10% SDS-PAGE gel following the general procedure described in Example 14. After electrophoresis, the gel was rinsed three times with ddH2O and imaged on a Bio-Rad Chemi-doc-MP Imager. Where applicable, the gel was transferred to a PVDF membrane for western blot analysis following the general procedure described in Example 15.

MDA-MB-468 = assay: Cell viability assay (AlamarBlue); conditions: MDA-MB-468, 72 hours
Method: (§1) FIGS. 22A and 22D are graphs showing results of cytotoxicity assays for MDA-MB-468 (FIG. 22A) and BT-549 (FIG. 22D). […] Stated cell lines were plated in 96-well plates (3000 cells per well) in the presence of the stated concentration of inhibitor. After 72 hours, the number of viable cells was analyzed by AlamarBlue®. Proliferation inhibition 50% (PI50) values were calculated by fitting data to “PI50 equation” (EQN 4) (FIG. 22C). MDA cells were transfected with the stated siRNA using lipofectamine 3000 for 12 hours. […] After 72 hours, the number of viable cells was calculated using AlamarBlue®. FIG. 22F is a schematic showing AlamarBlue® viability assay. […] MDA-MB-468 cells were treated with the stated drugs for 72 hours at the PI60 and PI80. After this time, cells were harvested, fixed/permeabilized with ethanol and DNA content was stained using propidium iodide (visualized in the 488-3 channel). RNA was removed simultaneously using RNAse. After 30 min at room temperature, cells were analyzed by flow cytometry.
(§2) Indicated cells were plated in a 96-well plate containing the DMEM complete medium (see Example 11 for complete medium formulation, 100 μL per well) with a density of 3,000-5,000 cells per well for 12 hours followed by the addition of varying concentrations of inhibitors in rinse medium (100 μL). The cells were allowed to grow for 72 hours and 100 μL of the culture medium was removed from each well. This was followed by the addition of 10 μL AlamarBlue® reagent to each well. The fluorescence emission signals at 590 nm were read by Cytation 3 cell imaging multi-mode reader (BioTeK) using an excitation wavelength of 560 nm. Curve fitting and data analysis were performed using Prism software.

BT-549 = assay: Cell viability assay (AlamarBlue); conditions: BT-549, 72 hours
Method: as §1, §2

With `CC(C)NC[C@@H](C(=O)N1CCN(c2ncnc3c2[C@H](C)C[C@H]3O)CC1)c1ccc(Cl)cc1` [GDC-0068] the “G1/G0 (percentage of cells in phase)” value (MDA-MB-468 cells; drug at PI60, 72 hours) was 52.6, the “G2/M (percentage of cells in phase)” value (MDA-MB-468 cells; drug at PI60, 72 hours) was 28.3 and the “S (percentage of cells in phase)” value (MDA-MB-468 cells; drug at PI60, 72 hours) was 12.1. The “subG0 (percentage of cells in phase)” value (MDA-MB-468 cells; drug at PI60, 72 hours) was 1.64.
In the case of `CCn1c(-c2nonc2N)nc2c(C#CC(C)(C)O)ncc(OC[C@H]3CCCNC3)c21` [GSK-69063], the “G1/G0 (percentage of cells in phase)” value (MDA-MB-468 cells; drug at PI80, 72 hours) is reported as 47.7, the “G2/M (percentage of cells in phase)” value (MDA-MB-468 cells; drug at PI80, 72 hours) is reported as 30.0 and the “S (percentage of cells in phase)” value (MDA-MB-468 cells; drug at PI80, 72 hours) is reported as 14.3. For the same compound, the “subG0 (percentage of cells in phase)” value (MDA-MB-468 cells; drug at PI80, 72 hours) was 0.92.
With `C#CCCCC(O)C=CC=O` (stereo not shown) [HNE alkyne] the “G1/G0 (percentage of cells in phase)” value (MDA-MB-468 cells; drug at PI60, 72 hours) was 40.0, the “G2/M (percentage of cells in phase)” value (MDA-MB-468 cells; drug at PI60, 72 hours) was 30.8 and the “S (percentage of cells in phase)” value (MDA-MB-468 cells; drug at PI60, 72 hours) was 26.3. The “subG0 (percentage of cells in phase)” value (MDA-MB-468 cells; drug at PI60, 72 hours) was 3.7, the “G1/G0 (percentage of cells in phase)” value (MDA-MB-468 cells; drug at PI80, 72 hours) was 28.5 and the “G2/M (percentage of cells in phase)” value (MDA-MB-468 cells; drug at PI80, 72 hours) was 22. The “S (percentage of cells in phase)” value (MDA-MB-468 cells; drug at PI80, 72 hours) was 31.3 and the “subG0 (percentage of cells in phase)” value (MDA-MB-468 cells; drug at PI80, 72 hours) was 18.2.
In the case of `CCCCCC(O)/C=C/C=O` (stereo not shown) [HNE, hydroxynonenal], the “effect on cell cycle” value (MDA-MB-468 cells; 72 hours) is reported as “S-phase arrest; also recorded: loss of G1”.
In the case of `C#CCCCCC(O)C(=C)C(=O)NC1(c2ccc(-c3nc4ccn5c(=O)[nH]nc5c4cc3-c3ccccc3)cc2)CCC1.Cl` (stereo not shown) [MK-G, 8-(4-(1-(3-Hydroxy-2-methylenenon-8-ynamido)cyclobutyl)phenyl)-3-oxo-9-phenyl-2,3-dihydro-[1,2,4]triazolo[3,4-f][1,6]naphthyridin-7-ium Chloride], the “Akt isozyme selectivity of inhibition” value [1] is reported as “no isozyme-selective inhibition”.
For `C#CCCCC(O)CCC(=O)NC1(c2ccc(-c3nc4ccn5c(=O)[nH]nc5c4cc3-c3ccccc3)cc2)CCC1.Cl` (stereo not shown) [MK-HNA, 8-(4-(1-(4-Hydroxynon-8-ynamido)cyclobutyl)phenyl)-3-oxo-9-phenyl-2,3-dihydro-[1,2,4]triazolo[3,4-f][1,6]naphthyridin-7-ium Chloride], the “covalent labeling of Halo-Akt3” value (Halo-Akt3) was “no covalent labeling was observed”.
With `C#CCCCC/C=C/C(=O)NC1(c2ccc(-c3nc4ccn5c(=O)[nH]nc5c4cc3-c3ccccc3)cc2)CCC1` [MK-dHNE, (E)-8-(4-(1-(Non-2-en-8-ynamido)cyclobutyl)phenyl)-3-oxo-9-phenyl-2,3-dihydro-[1,2,4]triazolo[3,4-f][1,6]naphthyridin-7-ium Chloride] the “toxicity / potency relative to MK-2206” value (MDA-MB-468) was “less effective than MK-2206”, the “toxicity / potency relative to MK-2206” value (BT-549) was “less effective than MK-2206” and the “covalent labeling of Halo-Akt3” value (Halo-Akt3) was “able to elicit covalent labeling”.
